Assay [1] has as its system NLRP3 inflammasome pathway. Put plainly: NLRP3 inflammasome pathway activation assay, MSU stimulation, IL-1β release (AlphaLISA). In kind it is cell-based. Conditions: PMA-differentiated, LPS-primed human monocyte-like cells, MSU 150 µg/ml for 3 h. How it is done: (§1) The following assays were used to determine the inhibitory activity of test compounds on the NLRP3 inflammasome pathway using common stimuli Nigericin (Invivogen) or monosodium urate crystals (MSU) (Invivogen).
(§2) Human monocyte-like cells were cultured in RPMI-1640 Glutamax medium supplemented with 10% heat inactivated FCS and 50 U/ml penicillin-streptomycin (Life Technologies).
(§3) Human monocyte-like cells were seeded at 75000 per well in a 96-well plate and were differentiated overnight into macrophages with 10 ng/ml PMA (Phorbol Myristate Acetate). The following day, medium containing 10 ng/ml LPS (Lipopolysaccharide) were added. After 3 hours of LPS priming, concentrations of test compound in the range from 100 µM to 6 nM were added 30 min prior to NLRP3 inflammasome pathway stimulation with Nigericin 3.75 µM or MSU 150 µg/ml for 3 h.
(§4) For IL-1β quantification, supernatants were analyzed using AlphaLISA kits according to the manufacturer’s instructions (Perkin Elmer AlphaLISA AL220F). Briefly, in a 384-well OptiPlate™ microplate, 5 µl of sample was mixed, with 20 µl of AlphaLISA Anti-Analyte Acceptor beads (10 µg/mL final) and Biotinylated Antibody Anti-Analyte (1 nM final). Then, incubated 60 minutes at RT, then 25 µL of 2X SA-Donor beads (40 µg/mL final) were added and incubated 30 minutes at RT in the dark. Reading was done using an EnVision-Alpha Reader (PerkinElmer).
(§5) IC50(concentration corresponding to 50% inhibition) were determined using GraphPad Prism 8.
In general terms: In Alpha technology, singlet oxygen from a donor bead excites a nearby acceptor bead.

The subject of assay [2] is NLRP3 inflammasome pathway. Put plainly: NLRP3 inflammasome pathway activation assay, Nigericin stimulation, IL-1β release (AlphaLISA). In kind it is cell-based. The conditions noted are these: PMA-differentiated, LPS-primed human monocyte-like cells, Nigericin 3.75 µM for 3 h. How it is done:
as §1, §2, §3, §4, §5

Assay [3] concerns NLRP3 inflammasome pathway. Put plainly: Human whole blood assay (LPS-ATP), IL-1β levels by AlphaLISA. In kind it is cell-based. The conditions noted are these: LPS priming, ATP activation 1 h, IL-1β in plasma. The method, then:
• Preliminary blood hemolysis assessment was performed before running the assay. Blood samples were centrifuged at 1000 g for 10 min. Then, 50 to 100 µL of blood were transferred into Corning™96-Well Clear flat bottom plate. Hemolysis was assessed via Tecan at 414 nm wavelength. Hemolysis O.D. values should be lower than 1. • Add 10 µL LPS 9× or CTRL following plate layout. • Add 80 µL of each whole blood/well in PP low-bind 96-well plate. • Incubate for 2h30 to 3 h at 37° C. and 5% CO2. • Add 10 µL of compounds 10× or control in wells following plate layout. • Incubate for 30 min at 37° C. and 5% CO2. • Add 11 µL ATP 10× or control in all wells following plate layout. • Incubate for 1 h at 37° C. and 5% CO2. • Collect 1 h timepoint → Centrifuge the plate 1000 g 10 min, collect the plasma (40 to 50 µL) and store at -20° C. • Measure IL-1β levels by AlphaLISA
as §4, §5

The subject of assay [4] is NLRP3 inflammasome pathway. Put plainly: LPS-ATP induced peritonitis mouse model, IL-1β in peritoneal lavage. In kind it is in vivo, C57BL/6 female mice. Conditions: for inhibition of IL-1β release in peritoneal lavage samples (FIG. 1): mice dosed 1 mg/kg or 3 mg/kg by intraperitoneal injection, n=6, p<0.0001 vs vehicle-treated group; for % IL-1 beta inhibition vs vehicle (peritoneal lavage samples): mice, intraperitoneal 1 mg/kg or 3 mg/kg (dose not given), 15 min before ATP. The method, then:
C57BL/6 female mice aged 6 to 8 weeks were randomized into experimental groups. Mice were challenged intraperitoneally with 50 µg/kg LPS. Two hours later, mice received i.p. 200 µL of ATP (Adenosine TriPhosphate) 50 mM, pH 7.2. Compounds were administered intraperitoneally at 1 mg/kg or 3 mg/kg, 15 minutes before ATP injection. Thirty minutes after ATP injection, animals were sacrificed by CO2. Cardiac blood was collected through heart puncture. Peritoneal lavage was performed with a total volume of 4 mL of sterile saline solution with intact peritoneum. IL-1b levels were assessed in peritoneal lavage samples via AlphaLisa. Results were expressed as % reduction compared to vehicle-treated group.
as §4

By IC50 is commonly meant the point on the concentration scale where inhibition reaches its midpoint. A high value points to weaker potency.

On to `CCOC(=O)C(O)(CNC(=S)Nc1c2c(cc3c1CCC3)CCC2)c1cc(C(C)(C)O)on1` (single isomer, unassigned) [Example 14a, Ethyl 3-(3-(1,2,3,5,6,7-hexahydro-s-indacen-4-yl)thioureido)-2-hydroxy-2-(5-(2-hydroxypropan-2-yl)isoxazol-3-yl)propanoate], for which the IC50 in assay [1] and in assay [2] was under 1000 nM each time.
Take `CCOC(=O)C1(c2cc(C(C)(C)O)on2)CN=C(Nc2c3c(cc4c2CCC4)CCC3)O1` (single isomer, unassigned) [Example 16, Ethyl 2-((1,2,3,5,6,7-hexahydro-s-indacen-4-yl)amino)-5-(5-(2-hydroxypropan-2-yl)isoxazol-3-yl)-4,5-dihydrooxazole-5-carboxylate]: the IC50 in assay [1], in assay [2] and in assay [3] was under 1000 nM each time. Further, the “inhibition of IL-1β release in peritoneal lavage samples (FIG. 1)” value in assay [4] was “significant inhibition”. Moreover, in assay [4], the “% IL-1 beta inhibition vs vehicle (peritoneal lavage samples)” value (“% IL-1 beta inhibition vs vehicle” below) stood at 99%.
`CCOC(=O)C1(c2ccon2)CN=C(Nc2c3c(cc4c2CCC4)CCC3)O1` (single isomer, unassigned) [Example 21Bb]: the IC50 in assay [1] and in assay [3] was under 1000 nM each time. In addition, the “% IL-1 beta inhibition vs vehicle” value in assay [4] came out at 73%.
As to `CC(C)OC(=O)C1(c2ccon2)CN=C(Nc2c3c(cc4c2CCC4)CCC3)O1` (single isomer, unassigned) [Example 59, isopropyl 2-((1,2,3,5,6,7-hexahydro-s-indacen-4-yl)amino)-5-(isoxazol-3-yl)-4,5-dihydrooxazole-5-carboxylate], the IC50 in assay [1] is under 1000 nM; in assay [3] it was 1000 to 10000 nM.
In the case of `CCOC(=O)C1(c2ccccc2)CN=C(Nc2c3c(cc4c2CCC4)CCC3)O1` (stereo not drawn) [Example 2, Ethyl 2-((1,2,3,5,6,7-hexahydro-s-indacen-4-yl)amino)-5-phenyl-4,5-dihvdrooxazole-5-carboxylate], the IC50 in assay [1] and in assay [2] was 1000 to 10000 nM in each case.
Turning to `CCOC(=O)C1(c2nccn2C)CN=C(Nc2c3c(cc4c2CCC4)CCC3)O1` (stereo not drawn) [Example 3, Ethyl 2-((1,2,3,5,6,7-hexahvdro-s-indacen-4-vl)amino)-5-(1-methyl-1H-imidazol-2-yl)-4,5-dihydrooxazole-5-carboxylate], the IC50 in assay [1] is under 1000 nM; in assay [2] (Homo sapiens, 3 h), under 1000 nM.
As to `CCOC(=O)C1(c2nccn2C)CN=C(Nc2c3c(cc4c2CCC4)CCC3)O1` (stereo not drawn) [Example 4, Ethyl 2-((1,2,3,5,6,7-hexahydro-s-indacen-4-vl)amino)-5-(1-methyl-1H-imidazol-2-yl)-4,5-dihydrooxazole-5-carboxylate], the IC50 in assay [1] and in assay [2] was under 1000 nM in each case.
In the case of `CCOC(=O)C1(c2ccc(OC)nc2)CN=C(Nc2c3c(cc4c2CCC4)CCC3)O1` (stereo not drawn) [Example 6, Ethyl 2-((1,2,3,5,6,7-hexahydro-s-indacen-4-yl)amino)-5-(6-methoxypyridin-3-yl)-4,5-dihydrooxazole-5-carboxylate], the IC50 was under 1000 nM in assay [1] and under 1000 nM in assay [2] (Homo sapiens, 3 h).
Regarding `CCOC(=O)C1(c2cccnc2)CN=C(Nc2c3c(cc4c2CCC4)CCC3)O1` (stereo not drawn) [Example 11a, Ethyl 2-((1,2,3,5,6,7-hexahydro-s-indacen-4-yl)amino)-5-(pyridin-3-yl)-4,5-dihvdrooxazole-5-carboxylate], the IC50 in assay [1] is under 1000 nM; in assay [2] (Homo sapiens, 3 h) it was under 1000 nM.
As to `CCOC(=O)C1(c2cccc(Cl)c2)CN=C(Nc2c3c(cc4c2CCC4)CCC3)O1` (stereo not drawn) [Example 13, Ethyl 5-(3-chlorophenyl)-2-((1,2,3,5,6,7-hexahydro-s-indacene-4-yl)amino)-4,5-dihvdrooxazole-5-carboxylate], the IC50 is under 1000 nM in assay [1] and under 1000 nM in assay [2] (Homo sapiens, 3 h).
As to `CCOC(=O)C1(c2cc(C(C)(C)O)on2)CN=C(Nc2c3c(cc4c2CCC4)CCC3)O1` (stereo not drawn) [Example 15, Ethyl 2-((1,2,3,5,6,7-hexahvdro-s-indacen-4-yl)amino)-5-(5-(2-hydroxypropan-2-yl)isoxazol-3-yl)-4,5-dihydrooxazole-5-carboxylate], the half-inhibitory concentration (IC50) in assay [1] was under 1000 nM; in assay [2] (Homo sapiens, 3 h) it was under 1000 nM.
Consider `CC(C)(O)c1cc(C2(C(=O)O)CN=C(Nc3c4c(cc5c3CCC5)CCC4)O2)no1` (stereo not drawn) [Example 22, 2-((1,2,3,5,6,7-hexahydro-s-indacen-4-yl)amino)-5-(5-(2-hydroxypropan-2-yl)isoxazol-3-yl)-4,5-dihydrooxazole-5-carboxylic Acid], for which the IC50 in assay [1] is under 1000 nM; in assay [2] (Homo sapiens, 3 h) it was 1000 to 10000 nM.
Take `CC(C)(O)c1cc(C2(C(=O)O)CN=C(Nc3c4c(cc5c3CCC5)CCC4)O2)no1` (stereo not drawn) [Example 23, 2-((1,2,3,5,6,7-hexahydro-s-indacen-4-yl)amino)-5-(5-(2-hydroxypropan-2-yl)isoxazol-3-yl)-4,5-dihydrooxazole-5-carboxylic acid]: the IC50 was under 1000 nM in assay [2] and 1000 to 10000 nM in assay [3]. The “inhibition of IL-1β release in peritoneal lavage samples (FIG. 1)” value in assay [4] was “significant inhibition”. Moreover, the “% IL-1 beta inhibition vs vehicle” value in assay [4] is on record as over 99%.
For the compound `O=C(O)C1(c2nccs2)CN=C(Nc2c3c(cc4c2CCC4)CCC3)O1` (stereo not drawn) [Example 24, 2-((1,2,3,5,6,7-hexahydro-s-indacen-4-yl)amino)-5-(thiazol-2-yl)-4,5-dihydrooxazole-5-carboxylic acid], the IC50 in assay [1] and in assay [3] was 1000 to 10000 nM throughout.
With `O=C(O)C1(c2ccon2)CN=C(Nc2c3c(cc4c2CCC4)CCC3)O1` (stereo not drawn) [Example 29, 2-((1,2,3,5,6,7-hexahydro-s-indacen-4-yl)amino)-5-(isoxazol-3-yl)-4,5-dihydrooxazole-5-carboxylate], the IC50 in assay [1] was under 1000 nM; in assay [3] it was 1000 to 10000 nM.
Turning to `CCOC(=O)C(O)(CNC(=S)Nc1c2c(cc3c1CCC3)CCC2)c1cc(C(C)C)on1` (stereo not drawn) [Example 46, ethyl 3-(3-(1,2,3,5,6,7-hexahydro-s-indacen-4-yl)thioureido)-2-hydroxy-2-(5-isopropylisoxazol-3-yl)propanoate], the IC50 in assay [1] is 1000 to 10000 nM; in assay [2] it was under 1000 nM.
On to `O=C(OC1CCCC1)C1(c2ccon2)CN=C(Nc2c3c(cc4c2CCC4)CCC3)O1` (stereo not drawn) [Example 58, Cyclopentyl 2-((1,2,3,5,6,7-hexahvdro-s-indacen-4-vl)amino)-5-(isoxazol-3-yl)-4,5-dihydrooxazole-5-carboxylate], for which the IC50 is under 1000 nM in assay [1] and 1000 to 10000 nM in assay [3].
“Ethyl 2-((1,2,3,5,6,7-hexahydro-s-indacen-4-yl)amino)-5-(tetrahvdro-2H-pyran-4-yl)-4,5-dihydrooxazole-5-carboxylate [Example 12]”: the IC50 in assay [1] and in assay [2] was 1000 to 10000 nM in each case.
